Source: the NIST ThermoML archive (doi:10.1016/j.fluid.2008.02.007)
Numbers after ± are expanded uncertainties.

Details: Crystal; visual observation

Row | Normal melting temperature | Compound
1 | 240 ± 0.5 °C | O=C(O)c1ccc([N+](=O)[O-])cc1 [4-nitrobenzoic acid]
2 | 147.7 ± 0.5 °C | O=C(O)c1ccccc1[N+](=O)[O-] [2-nitrobenzoic acid]
